Results on two sequences are retold here after patent US8354106B2, “Antibodies against HMGB1 and fragments thereof” (The Feinstein Institute for Medical Research, priority 2005, dated 2013).

Where no end group is shown, it is not given here. The star is where a group is joined. Biotin = O=C1N[C@H]2[C@H](CS[C@H]2CCCCC(=O)*)N1

Test [1] concerns allogeneic T cells co-cultured with BM-DCs. Briefly: Functional maturation of BM-DCs: allogeneic T cell proliferation in mixed lymphocyte reaction (3H-thymidine). The class given is cell-based, mouse. The note with it: BM-DCs from C57/BL6 mice exposed 48 h; peptide 200 μg/ml, HMGB1-Bx 50 μg/ml; DC:T cell ratio 1:120, 5 days; FIG. 4A. As for the experimental part:
Immature BM-DCs that were generated from C57/BL6 mice (FIG. 4A) or Balb/c mice (FIG. 4B) were incubated for 48 h with either HMGB1-Bx (50 μg/ml), a particular HMGB1 peptide (200 μg/ml), LPS (100 ng/ml) or were left untreated (medium). T cells were isolated by negative selection using the mouse SpinSep antibody cocktail from StemCell Technologies (Vancouver, Calif.), according to the manufacturer's instructions. The cell purity of the isolated T cells was routinely ˜99% pure. In order to assess levels of T cell activation and proliferation, cells were plated at 10^5 cells per well in a round-bottomed 96-well tray at a DC:T cell ratio of 1:120 for 5 days in the medium described above. The microcultures were pulsed with (^3H)-thymidine ([…]) for the final 8 h of culture. Cell cultures were harvested onto glass fiber filters with an automated multiple sample harvester and the amount of isotope incorporation was determined by liquid scintillation β-emission. Responses are reported as mean cpm of thymidine incorporation by triplicate cultures (±SEM).

The subject of test [2] is human immature monocyte-derived dendritic cells (DCs). Description: Cytokine/chemokine secretion by human immature monocyte-derived dendritic cells (ELISA). The class given is cell-based. Set-up: key to TNFα secretion / IL-18 secretion / IL-8 secretion / IL-10 secretion / IL-6 secretion / IL-12 secretion: “+” indicates an increase; “−” indicates no change relative to untreated cells (medium). The following applies: for IL-6 secretion / IL-8 secretion / IL-10 secretion / IL-12 secretion / IL-18 secretion / TNFα secretion: HUMAN DC, ELISA 48 h after exposure, relative to untreated cells; for secretion of IL-6 by DCs: FIGS. 1A, 1B. As for the experimental part:
Peripheral blood mononuclear cells (PBMCs) were isolated from the blood of normal volunteers (Long Island Blood Services, Melville, N.Y.) over a Ficoll-Hypaque (Amersham Biosciences, Uppsala, Sweden) density gradient. CD14^+ monocytes were isolated from PBMCs by positive selection using anti-CD14 beads (Miltenyi Biotech., Auburn, Calif.), following the manufacturer's instructions. To generate DCs, CD14^+ cells were cultured in RPMI 1640 medium supplemented with 2 mM L-glutamine (GIBCO-BRL Life Technologies, Grand Island, N.Y.), 50 μM 2-mercaptoethanol (Sigma, St. Louis, Mo.), 10 mM HEPES (GIBCO-BRL), penicillin (100 U/ml), streptomycin (100 μg/ml) (GIBCO-BRL), and 5% human AB serum (Gemini Bio-Products, Woodland, Calif.). Cultures were maintained for 7 days in 6-well trays (3×10^6 cells/well) supplemented with 1000 U GM-CSF per ml (Immunex, Seattle, Wash.) and 200 U IL-4 per ml (R&D Systems, Minneapolis, Minn.) at days 0, 2, 4 and 6.
Recombinant HMGB1-B box domain (HMGB1-Bx) was expressed in Escherichia coli and purified as described by Li, et al. (Mol. Med. 9:37-45; J. Immunol. Methods 289:211-223 (2004)). Purified HMGB1-Bx contained trace amounts of LPS (19 pg LPS/μg HMGB1-Bx) as measured by the chromogenic Limulus amebocyte lysate assay (BioWhittacker Inc, Walkersville, Md.). All experiments using HMGB1-Bx, as well as the HMGB1 peptides, were performed in the presence of polymyxin B (200 U/ml) to neutralize the amount of contaminating LPS in the HMGB1-Bx and peptide preparations. We have previously shown that the DC stimulatory capacity of HMGB1-Bx requires an intact tertiary structure and is not due to contaminating amounts of LPS, as trypsinization abolished HMGB1-Bx activity (Messmer, et al., J. Immunol. 173: 307-313 (2004); the entire teachings of which are incorporated herein by reference).
Secreted cytokine/chemokine levels were measured by ELISA (Pierce Boston Technology Center, SearchLight™ Proteome Arrays Multiplex Sample Testing Services, Woburn, Mass.) 48 h after addition of the various peptides. Polymyxin B (200 U/ml) was added to all cultures, except those containing LPS, before the stimuli were added. Immature monocyte-derived human dendritic cells (DCs) and immature bone-marrow derived murine dendritic cells (BM-DCs) were cultured either in the presence of HMGB1 peptides (200 μg/ml), whose sequences map to different regions of the HMGB1 protein (see Table 1), the entire HMGB1 B-box domain (HMGB1-Bx) (50 μg/ml), or LPS (100 ng/ml). Untreated cells (medium) were tested as a control. Each peptide was named according to the corresponding position of its first amino acid within the full-length HMGB1 sequence. All peptides were N-terminally biotinylated except “Hp-106 (non bio)”.

The test system of the next test is immature BM-DCs. Description: Phenotypic maturation of murine BM-DCs: surface maturation markers by FACS. Type of test: cell-based, mouse. The following applies: CD11c+ gated, mean fluorescence intensity, peptide 200 μg/ml, HMGB1-Bx 50 μg/ml; for CD86 expression on the surface of BM-DCs: FIG. 3A; for MHC-II expression on the surface of BM-DCs: FIG. 3B; for CD40 expression on the surface of BM-DCs: FIG. 3C. As to the method:
In order to determine whether HMGB1-Bx and/or particular HMGB1 peptides could induce phenotypic maturation of murine DCs, immature BM-DCs were exposed to either HMGB1-Bx, a particular HMGB1 peptide, or LPS (FIG. 3). Fluorescence activated cell sorting (FACS) analysis was performed on immature DCs that were cultured in the presence of either HMGB1-Bx (50 μg/ml), an HMGB1 peptide (200 μg/ml), or LPS (100 ng/ml). Untreated DCs (medium) were also tested as a control. DCs were gated on CD11c^+ cells and analyzed for expression of specific maturation markers (e.g., CD86, MHC-II, CD40) by surface membrane immunofluorescence. In particular, 1×10^4 DCs were reacted for at least 20 min at 4° C. in […] of PBS/5% FCS/0.1% sodium azide (staining buffer) with fluorescein isothiocyanate (FITC)-conjugated IgG monoclonal antibodies (mAbs) that are specific for CD86, CD40 or MHC-II (eBioscience). Cells were then washed 4 times with staining buffer, fixed in 10% formaldehyde in PBS (pH 7.2-7.4) and examined by flow cytometry using a FACScan (BD Biosciences). In all experiments, isotype controls were included using a FITC-conjugated irrelevant mAb of the same Ig class. Results are depicted as mean fluorescence intensity (MFI).

Setting [3] is: peptides 200 μg/ml, HMGB1-Bx 50 μg/ml.
Where [4] appears, read: human DCs, peptides 200 μg/ml, 48 h.

On to YAFFVQTCREEHIKKHPD [Hp-16], for which, in test [1], the “proliferation of resting allogeneic T cells (3H thymidine incorporation)” value is recorded as “activated proliferation”. In test [2] (setting [3]), the IL-6 secretion result was “−”, the IL-8 secretion entry is “−”, the IL-10 secretion entry is on record as “−” and the IL-12 secretion result is “−”. Moreover, in test [2] (setting [3]), the IL-18 secretion entry is “−” and the TNFα secretion entry is given as “−”. In addition, the “cytokine secretion by human DCs” value in test [2] (human DCs) is “did not stimulate cytokine secretion and not”. For the same sequence, in test [2] (setting [4]), the “secretion of IL-6 by DCs” value is listed as “did not induce IL-6 secretion”. In the test with immature BM-DCs, the “CD86 expression on the surface of BM-DCs” value was “strong upregulation”, the “MHC-II expression on the surface of BM-DCs” value is on record as “strong upregulation” and the “CD40 expression on the surface of BM-DCs” value is on record as “strong upregulation”.
As for “CSEYRPKIKGEHPGLSIG [Hp-106] (Biotin-CSEYRPKIKGEHPGLSIG; listed as Homo sapiens)”, the “proliferation of resting allogeneic T cells (3H thymidine incorporation)” value in test [1] was “activated proliferation”. Further, in test [2] (setting [3]), the IL-6 secretion result was “+”, the IL-8 secretion result was “−”, the IL-10 secretion result is “−” and the IL-12 secretion entry was “+”. In test [2] (setting [3]), the IL-18 secretion result is “+” and the TNFα secretion result is “+”. The “cytokine secretion by human DCs” value in test [2] (human DCs) is on record as “induced cytokine secretion by human DCs”. Besides, the “secretion of IL-12 (p70)” value in test [2] (human DCs, FIG. 1C, peptides 200 μg/ml, 48 h) was “induced secretion”. In addition, the “secretion of TNF-α” value in test [2] (human DCs, FIG. 1D, peptides 200 μg/ml, 48 h) was “induced secretion”. For the same sequence, in test [2] (human DCs, FIG. 1E, peptides 200 μg/ml, HMGB1-Bx 50 μg/ml, 48 h), the “secretion of IL-18” value is “induced secretion”. Moreover, the “secretion of IL-8” value in test [2] (human DCs, FIG. 1F, peptides 200 μg/ml, HMGB1-Bx 50 μg/ml, 48 h) was “did not induce secretion”. Besides, the “secretion of IL-6 by DCs” value in test [2] (setting [4]) was “induced secretion”. Besides, in the test with immature BM-DCs, the “CD86 expression on the surface of BM-DCs” value is given as “did not significantly enhance”, the “MHC-II expression on the surface of BM-DCs” value was “did not significantly enhance” and the “CD40 expression on the surface of BM-DCs” value is “did not significantly enhance”.
